Target: T1, rat histamine H3 receptors (Rattus norvegicus, UniProt Q9QYN8)
T1 construct: Frozen rat frontal brain or frozen human post-mortem frontal brain is homogenized; from tissue; host or cells: rat frontal brain membranes
Test: Rat H3 binding (3H-N-methylhistamine displacement, frontal brain membranes)
Settings: radioligand 1 nM 3H-N-methylhistamine, 1-hour incubation, read-out: Rat H3 activity (Kj)
Description: The in vitro affinity of the compounds in the present invention at the rat or human histamine H3 receptors can be determined according to the following procedure. Frozen rat frontal brain or frozen human post-mortem frontal brain is homogenized in 20 volumes of cold 50 mM Tris HCl containing 2 mM MgCl2 (pH to 7.4 at 4° C.). The homogenate is then centrifuged at 45,000 G for 10 minutes. The supernatant is decanted and the membrane pellet re-suspended by Polytron in cold 50 mM Tris HCl containing 2 mM MgCl2 (pH to 7.4 at 4 degrees C.) and centrifuged again. The final pellet is re-suspended in 50 mM Tris HCl containing 2 mM MgCl2 (pH to 7.4 at 25 degrees C.) at a concentration of 12 mg/mL. Dilutions of compounds are made in 10% DMSO/50 mM Tris buffer (pH 7.4) (at 10× final concentration, so that the final DMSO concentration is 1%). Incubations are initiated by the addition of membranes (200 microliters) to 96 well V-bottom polypropylene plates containing 25 microliters of drug dilutions and 25 microliters of radioligand (1 nM final concentration ^3H-N-methylhistamine). After a 1-hour incubation, assay samples are rapidly filtered through Whatman GF/B filters and rinsed with ice-cold 50 mM Tris buffer (pH 7.4) using a Skatron cell harvester. Radioactivity is quantified using a BetaPlate scintillation counter.

T1 sequence (Q9QYN8 whole entry): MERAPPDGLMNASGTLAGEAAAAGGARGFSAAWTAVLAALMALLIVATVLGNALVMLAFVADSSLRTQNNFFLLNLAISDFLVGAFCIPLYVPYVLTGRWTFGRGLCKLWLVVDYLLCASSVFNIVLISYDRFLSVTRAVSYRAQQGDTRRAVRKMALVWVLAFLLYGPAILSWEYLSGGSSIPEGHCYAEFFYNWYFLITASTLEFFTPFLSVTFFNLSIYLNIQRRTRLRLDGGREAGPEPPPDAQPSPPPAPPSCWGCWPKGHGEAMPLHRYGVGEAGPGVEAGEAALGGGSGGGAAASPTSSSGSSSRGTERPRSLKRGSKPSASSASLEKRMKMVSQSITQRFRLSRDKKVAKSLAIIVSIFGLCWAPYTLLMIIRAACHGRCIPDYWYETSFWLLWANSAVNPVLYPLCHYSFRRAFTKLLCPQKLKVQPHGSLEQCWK

Compound	Ki
c1ccc(Oc2ccc(CN3C[C@@H]4[C@@H](COCCCN5CCCCC5)[C@@H]4C3)cc2)cc1 [Example 30, (1S,5R,6R)-3-(4-phenoxybenzyl)-6-(3-piperidin-1-ylpropoxymethyl)-3-azabicyclo[3.1.0]hexane]	51 nM
c1ccc(Oc2cccc(CN3C[C@@H]4[C@@H](COCCCN5CCCCC5)[C@@H]4C3)c2)cc1 [Example 14, (1S,5R,6R)-3-(3-phenoxybenzyl)-6-(3-piperidin-1-ylpropoxymethyl)-3-azabicyclo[3.1.0]hexane]	51 nM
c1ccc(COc2cccc(CN3C[C@@H]4[C@@H](COCCCN5CCCCC5)[C@@H]4C3)c2)cc1 [Example 15, (1S,5R,6R)-3-(3-benzyloxybenzyl)-6-(3-piperidin-1-ylpropoxymethyl)-3-azabicyclo[3.1.0]hexane]	41 nM
COc1ccc(-c2ccc(CN3C[C@@H]4[C@@H](COCCCN5CCCCC5)[C@@H]4C3)cc2)cc1 [Example 57, (1R,5S,6R)-3-(4′-methoxybiphenyl-4-ylmethyl)-6-(3-piperidin-1-ylpropoxymethyl)-3-azabicyclo[3.1.0]hexane]	30 nM
CC(C)COc1ccc(CN2C[C@@H]3[C@@H](COCCCN4CCCCC4)[C@@H]3C2)cc1 [Example 70, (1R,5S,6R)-3-(4-isobutoxybenzyl)-6-(3-piperidin-1-ylpropoxymethyl)-3-azabicyclo[3.1.0]hexane]	69 nM
c1ccc(CCN2C[C@@H]3[C@@H](COCCCN4CCCCC4)[C@@H]3C2)cc1 [Example 3, (1S,5R,6R)-3-Phenethyl-6-(3-piperidin-1-ylpropoxymethyl)-3-azabicyclo[3.1.0]-hexane]	78 nM

Continued, values first:

Ki	Compound
116 nM	CC(=O)c1ccc(CN2C[C@@H]3[C@@H](COCCCN4CCCCC4)[C@@H]3C2)cc1 [Example 2, (1S,5R,6R)-1-{4-[6-(3-Piperidin-1-ylpropoxymethyl)-3-azabicyclo[3.1.0]hex-3-ylmethyl]-phenyl}-ethanone]
32 nM	c1ccc(-c2ccc(CN3C[C@@H]4[C@@H](COCCCN5CCCCC5)[C@@H]4C3)cc2)cc1 [Example 17, (1S,5R,6R)-3-biphenyl-4-ylmethyl-6-(3-piperidin-1-ylpropoxymethyl)-3-azabicyclo[3.1.0]hexane]
53 nM	FC(F)C(F)(F)Oc1ccc(CN2C[C@@H]3[C@@H](COCCCN4CCCCC4)[C@@H]3C2)cc1 [Example 69, (1R,5S,6R)-6-(3-piperidin-1-ylpropoxymethyl)-3-[4-(1,1,2,2-tetrafluoroethoxy)-benzyl]-3-azabicyclo[3.1.0]hexane]
63 nM	c1cncc(-c2ccc(CN3C[C@@H]4[C@@H](COCCCN5CCCCC5)[C@@H]4C3)cc2)c1 [Example 67, (1R,5S,6R)-6-(3-piperidin-1-ylpropoxymethyl)-3-(4-pyridin-3-ylbenzyl)-3-azabicyclo[3.1.0]hexane]
86 nM	c1ccc(CN2C[C@@H]3[C@@H](COCCCN4CCCCC4)[C@@H]3C2)cc1 [Int. 3, (1S,5R,6R)-3-Benzyl-6-(3-piperidin-1-ylpropoxymethyl)-3-azabicyclo[3.1.0]hexane]
45 nM	CC(=O)Nc1ccc(CN2C[C@@H]3[C@@H](COCCCN4CCCCC4)[C@@H]3C2)cc1 [Example 49, N-{4-[(1R,5S,6R)-6-(3-piperidin-1-ylpropoxymethyl)-3-azabicyclo[3.1.0]hex-3-ylmethyl]-phenyl}-acetamide]
58 nM	O=C1NCCN1c1ccc(CN2C[C@@H]3[C@@H](COCCCN4CCCCC4)[C@@H]3C2)cc1 [Example 51, 1-{4-[(1R,5S,6R)-6-(3-piperidin-1-ylpropoxymethyl)-3-azabicyclo[3.1.0]hex-3-ylmethyl]-phenyl}-imidazolidin-2-one]
43 nM	Fc1ccc(Oc2ccc(CN3C[C@@H]4[C@@H](COCCCN5CCCCC5)[C@@H]4C3)cc2)cc1 [Example 47, (1R,5S,6R)-3-[4-(4-fluorophenoxy)-benzyl]-6-(3-piperidin-1-ylpropoxymethyl)-3-azabicyclo[3.1.0]hexane]

Source: patent publication US20060047114A1, “Azabicyclic amine histamine-3 receptor antagonists” (Pfizer Inc, priority 2004, published 2006)
